Laboratory results as given in US20130303500A1, “COMPOUNDS AND METHODS FOR TREATING NEOPLASIA” (Medexis S.A., priority 2010, published 2013).

How the values were obtained:
CAKI (Renal) cells = test: MTT cell proliferation/viability assay, CAKI; format: cell-based; conditions: 72 h
Description: Cell proliferation/viability was assessed by the MTT [3-(4,5-dimethylthiazol-2-yl)-2,5-diphenyltetrazolium bromide] assay, which is commercially available (Sigma, St. Louis, Mo.). Cells were cultured in 96-well plates for twenty-four hours (7-10.000 cells/well) and incubated with various concentrations of the different compounds—as indicated in the Figures—in serum-containing medium (or left untreated) for seventy-two hours. At the end of incubation, the medium was aspirated and MTT dissolved in RPMI 1640 w/o phenol red was added to each well to a final concentration of 0.25 mg/ml. After four hours incubation in the dark (37° C., 5% CO2) the supernatant was discarded. The converted dye (blue formazan crystals) was solubilized by adding 200 μl dimethylsulfoxide to each well. Absorbance was measured at 550 nm with reference at 655 nm using a spectrophotometer with the respective filters. All assays were performed in triplicate.
The effect of the different compounds on the proliferation and viability of two cancer cell lines (DU145/prostate and CAKI/renal) was tested through quantitative (4,5-dimethylthiazol-2-yl)-2,5-diphenyltetrazolium bromide (MTT) assays.

[1] = system: NCI-ADR-RES (Ovarian) cells; test: Sulforhodamine B (SRB) assay, NCI-ADR-RES (multidrug resistant); format: cell-based, human; conditions: 48 h
Description: (§1) Sulforhodamine B (SRB) assays were performed according to standard National Cancer Institute Guidelines. Briefly, human tumor cells from different cancer panels were seeded into 96 well plates in […] (plating densities ranging from 5-40,000 cells/well depending on the doubling time of individual cell lines) in serum-containing media for twenty-four hours prior to the addition of the compounds to be assayed. After 24 hours, one plate of each cell line was fixed in situ with trichloroacetic acid (TCA). The fixed slides were used to determine the cell population for each cell line at the time of drug addition (Tz). Each compound to be tested was solubilized in dimethyl sulfoxide (DMSO) and the desired concentration was then added to the medium and diluted serially 1:10 to provide a total of five or ten drug concentrations plus control (in a final volume of 200 μL). The starting dose before any dilution was 100 uM for all compounds.
(§2) Following drug addition, each culture was incubated for forty-eight hours. The assay was terminated with the addition of cold TCA. The supernatant was discarded, and the plates were washed with tap water and air dried. SRB solution was then added to each well. After staining, the bound stain was solubilized and the absorbance was read on an automated plate reader at a wavelength of 515 nm.
(§3) Using the absorbance measurements [time zero, (Tz), control growth, (C), and test growth in the presence of drug at the ten concentration levels (Ti)], the percentage growth was calculated at each of the drug concentrations levels. Percentage growth inhibition was calculated as:
(§4) [(Ti−Tz)/(C−Tz)]×100 for concentrations for which Ti>/=Tz
(§5) [(Ti−Tz)/Tz]×100 for concentrations for which Ti<Tz.
(§6) Three dose response parameters were calculated for each experimental agent. Growth inhibition of 50% (GI50) was calculated from [(Ti−Tz)/(C−Tz)]×100=50, which was the drug concentration resulting in a 50% reduction in the net protein increase (as measured by SRB staining) in control cells during the drug. The drug concentration resulting in total growth inhibition (TGI) was calculated from Ti=Tz. The LC50 (concentration of drug resulting in a 50% reduction in the measured protein at the end of the drug treatment as compared to that at the beginning) indicating a net loss of cells following treatment was calculated from [(Ti−Tz)/Tz]×100=−50.
(§7) Values were calculated for each of these three parameters when the level of activity was reached; however, if the effect was not reached or was exceeded, the value for that parameter was expressed as greater or less than the maximum or minimum concentration tested.

HCT116 (Colon) cells = test: Sulforhodamine B (SRB) assay, HCT116; format: cell-based, human
Description: as §1, §2, §3, §4, §5, §6, §7

[2] = system: 7 different cell lines (lung, ovarian, prostate, CNS, breast, colon); test: SRB assays across 7 cell lines; format: cell-based, human
Description: as §1, §2, §3, §4, §5, §6, §7
SRB provides a colorimetric measure of a compound's anti-cancer activity. SRB assays were performed with compounds of the invention in 7 different cell lines, which represent six different tumor panels (lung, ovarian, prostate, CNS, breast, colon).

[3] = system: membrane androgen receptor; test: Membrane androgen receptor competition assay with testosterone-HSA-FITC in DU145 cells; format: binding; parameters: membrane fluorescence (binding of TAC-FITC to the membrane androgen receptor): dose or concentration left out as unconfirmed
Description: The detection of membrane androgen receptors using fluorescent testosterone-serum albumin conjugates was performed as described by Kampa, M et al., 2002, Faseb J 16:1429-1431, with minor modifications. The assay was used to measure the ability of a given compound to preclude binding of a fluorescent mAR ligand (testosterone-HSA-FITC conjugates) to its receptor in DU145 cells; this compound-induced effect is indicative of direct mAR binding (see Kampa et al and PCT/US2007/007913). […] Coverslips were mounted on slides by using the Slow Fade/Antifade Reagent (Molecular Probes) and studied under a LEICA DMLB microscope, equipped with the appropriate fluorescence filters and a Leica DC 300F camera. Specimens were analyzed using the Leica FW4000 computer program.
Membrane androgen receptor competition assays were performed to determine the capacity of a given compound to preclude binding of fluorescent testosterone-HSA conjugates (TAC) to the membrane androgen receptor. […] Specimens were prepared and analyzed as described above. Compounds binding to the membrane androgen receptor preclude binding of fluorescent testosterone-HSA conjugates to their target and abolish membrane-specific fluorescence.

A549 (Lung) cells = test: Sulforhodamine B (SRB) assay, A549; format: cell-based; conditions: Homo sapiens
Description: as §1, §2, §3, §4, §5, §6, §7

MCF7 (Breast) cells = test: Sulforhodamine B (SRB) assay, MCF7; format: cell-based, human
Description: as §1, §2, §3, §4, §5, §6, §7

Structure (SMILES): C[C@]12CCC(=NOC3CCNC3)CC1CCC1C2CC[C@]2(C)C(=O)C(F)CC12 (stereo partly drawn) [Compound 2, (5S,10S,13S,16R)-16a-fluoro-10,13-dimethyl-3-((S)-pyrrolidin-3-yloxyimino)-tetradecahydro-2H-cyclopenta[a]phenanthren-17(14H)-one]
- IC50 (CAKI (Renal) cells): 8750 nM
- CC50 ([1]; Homo sapiens, NCI/ADR-RES, read-out: LC50): 598 nM
- GI50 ([1]; Homo sapiens, NCI-ADR-RES Ovarian, SRB): 29 nM
- TGI ([1]; NCI-ADR-RES Ovarian, SRB): 94 nM
- TGI (HCT116 (Colon) cells; HCT116 Colon, SRB, 48 h): 156 nM
- CC50 (HCT116 (Colon) cells; Homo sapiens, HCT-116, 48 h, read-out: LC50): 998 nM
- GI50 (HCT116 (Colon) cells; Homo sapiens, HCT-116, HCT116 Colon, SRB, 48 h): 8 nM
- CC50 ([2]; Homo sapiens, read-out: LC50 values): < 1000 nM
- GI50 ([2]; Homo sapiens, SRB, average over cell lines): < 1000 nM
- viability and/or cell proliferation of cell lines ([2]; cell lines representative of lung, breast, CNS, prostate, ovarian, colon and renal neoplasias): reduced the viability and/or cell proliferation
- binding to the membrane androgen receptor (conclusion) ([3]; DU145 cells): capable of binding to the membrane androgen receptor
- membrane fluorescence (binding of TAC-FITC to the membrane androgen receptor) ([3]; DU145 cells pre-treated with compound for 30 minutes, then testosterone-HSA-FITC): largely reduced
- CC50 (A549 (Lung) cells; A549, 48 h, read-out: LC50): 599 nM
- GI50 (A549 (Lung) cells; A549 Lung, SRB, 48 h): 9 nM
- IC (TGI) (A549 (Lung) cells; A549 Lung, SRB, 48 h): 73 nM
- CC50 (MCF7 (Breast) cells; Homo sapiens, MCF7, 48 h, read-out: LC50): 9780 nM
- GI50 (MCF7 (Breast) cells; Homo sapiens, MCF7 Breast, SRB, 48 h): 21 nM
- TGI (MCF7 (Breast) cells; MCF7 Breast, SRB, 48 h): 478 nM
